Results on 16 compounds are retold here after publication PMC7751403, “Development of 2-oindolin-3-ylidene-indole-3-carbohydrazide derivatives as novel apoptotic and anti-proliferative agents towards colorectal cancer cells” (Journal of Enzyme Inhibition and Medicinal Chemistry, 2020).

Like-named read-outs stand apart in the source and are kept apart here. Some results are limits rather than exact numbers.

Series [1] deals with SW-620 colorectal cancer cell line. Briefly: MTT cell viability assay, SW-620 colorectal cancer cells. It is filed as cell-based, human. The method, then:
(§1) HT29 and SW620 colorectal cancer cell lines and HFF-1 fibroblast (ATCC, Rockville, USA) were used. HT29 cells were cultured and maintained in Dulbecco’s Modified Eagle’s Medium (DMEM) (GIBCO, by Thermo Fischer Scientific, NY, USA) supplemented with 10% foetal bovine serum (FBS), 100 units/mL penicillin, and 100 µg streptomycin. SW620 and HFF-1 cells were cultured in Roswell Park Memorial Institute medium (RPMI-1640) (GIBCO, by Thermo scientific, NY, USA) supplemented with 10% FBS and 1% penicillin and streptomycin (Napolitano et al., 2015). All cultures were incubated at 37 °C and humidified atmosphere of 5% CO2.
(§2) The cytotoxicity effect of compounds on the colorectal cancer cell lines, HT29 and SW620 in addition to the normal human fibroblasts was measured by MTT (3–(4, 5-dimethylthiazol-2-yl)-2,5-diphenyltetrazolium bromide) (Sigma-Aldrich, St. Louis, MO, USA) as previously described. Briefly, cells were seeded in 96 well culture plates at 5000/well for HT29 and 10,000/well for SW620 for 24 h. Cells were then incubated with different compounds from WAG1 series (1–15) 24 h at 37 °C and humidified 5% CO2 incubator. Freshly prepared 10 µl of 3–(4,5-dimethylthiazol-2-yl)-2,5-diphenyltetrazolium bromide (MTT 5 mM) solution were added to the cells and further incubated for 2 h. Thereafter, 100 µl of dimethyl sulphoxide (DMSO) were added in each well and the crystals were dissolved through careful pipetting. In certain experiment, cells were treated different concentration of 5FU for 72 h. The absorbance of the product was measured at 540 nm using a Synergy™ 2 multi-mode microplate reader (Biotech, VA, USA). The experiments were performed in triplicate for each condition.
A general note: Formazan colour is commonly taken as a measure of viable cells.

Series [2] deals with HT-29 colorectal cancer cell line. Briefly: MTT cell viability assay, HT-29 colorectal cancer cells. Type of series: cell-based, human. As for the experimental part: as §1, §2
For series [3], the system named is SW-620 cells. Briefly: Annexin V-FITC/PI apoptosis assay (flow cytometry). It is filed as cell-based, human. As to conditions: 24 h. The method, then:
Induction of apoptosis was measured by Dead Cell Apoptosis Kit with Annexin V FITC and PI, for flow cytometry (Thermofischer scientific, OR, USA) according to the manufacturer’s instruction. As described previously (39), cells were seeded in a 6-well plate (3 × 10^5 cells per well) and treated with the various compound for 24 h. Both floating and adherent cells were harvested, pooled together, and incubated with Annexin V-FITC and PI for 15 min on ice in dark. The cells were analysed by BD FACSCalibur™ cell analyser (BD Biosciences, CA, USA) at an emission of 530 nm (FL1 channel) and >575 nm (FL3).
In general terms: Flow cytometry measures light scatter and fluorescence of single cells or particles in a stream.

The subject of series [4] is Bcl2. Briefly: Western blot of Bcl2 protein expression in SW-620 cells. As to conditions: SW-620, two concentrations, 24 h, immunoblotting. Type of series: cell-based, human. The method, then: (§3) All cells were seeded in a 100 mm dish (1 × 10^6 cells per dish) in 5% CO2 at 37 °C in the appropriate culture medium. The cells with around 50% confluency were treated with compounds for 24 h. At the experiment day, cells were washed with 1x PBS, harvested and lysed in RIPA lysis buffer, combined with protease inhibitors, (Sigma-Aldrich, St. Louis, MO, USA) as described previously[39]). The total protein concentration was evaluated by the colorimetric Bradford protein assay (BIO-RAD inc, CA, USA) at 595 nm absorbance. Lysates were loaded in equal concentration and separated by sodium dodecyl sulfate-polyacrylamide gel electrophoresis (SDS-PAGE) and then transferred to a nitrocellulose membrane by semi-dry. Blocking of the membrane was done by 5% non-fat dried milk for one hour, incubated with the primary antibodies. The primary antibodies used were Bcl2 (cat. no. sc-7382), BclxL (cat. no. sc-8392) and β Actin (cat. no. sc-69879) from (Santa Cruz Biotechnology, Inc., Dallas, TX, USA). The secondary antibodies used were goat anti-mouse IgG-HRP (cat. no. sc-2005) and mouse anti-rabbit IgG-HRP (cat. no. sc-2357) from (Santa Cruz Biotechnology, Inc., Dallas, TX, USA). Detection was done with Luminol HRP chemiluminescence substrate (cat. no. sc-2048) from (Santa Cruz Biotechnology, Inc., Dallas, TX, USA) and then visualised by c-digit blot-scanner (LI-COR, Nebraska, USA).

For series [5], the system named is normal human skin fibroblast (HFF-1). Briefly: MTT cell viability assay, normal fibroblast HFF-1. Type of series: cell-based. As to conditions: 24 h. As for the experimental part:
as §1
The cytotoxicity effect of compounds on the colorectal cancer cell lines, HT29 and SW620 in addition to the normal human fibroblasts was measured by MTT (3–(4, 5-dimethylthiazol-2-yl)-2,5-diphenyltetrazolium bromide) (Sigma-Aldrich, St. Louis, MO, USA) as previously described. Briefly, cells were seeded in 96 well culture plates at 5000/well for HT29 and 10,000/well for SW620 for 24 h. Cells were then incubated with different compounds from WAG1 series (1–15) 24 h at 37 °C and humidified 5% CO2 incubator. […] The absorbance of the product was measured at 540 nm using a Synergy™ 2 multi-mode microplate reader (Biotech, VA, USA). […]

Series [6] relates to BclxL. Briefly: Western blot of BclxL protein expression in SW-620 cells. The conditions noted are these: SW-620, two concentrations, 24 h, immunoblotting. It is filed as cell-based, human. As for the experimental part:
as §3

[7] abbreviates: Homo sapiens, SW-620, MTT, compounds 24 h (5FU 72 h), three separate experiments, read-out: IC50 (nM) SW-620.
The mark [8] stands for this setting: Homo sapiens, HT-29, MTT, compounds 24 h (5FU 72 h), three separate experiments, read-out: IC50 (nM) HT-29.
Setting [9] is: MTT, compounds 24 h (5FU 72 h), three separate experiments, read-out: IC50 (nM) SW-620.
The mark [10] stands for this setting: MTT, compounds 24 h (5FU 72 h), three separate experiments, read-out: IC50 (nM) HT-29.

`O=c1[nH]cc(F)c(=O)[nH]1` [Compound 5-FU, 5-Fluorouracil, reference compound]: the IC50 (as a rule, the point on the concentration scale where inhibition reaches its midpoint) was found to be 4600 nM in series [1] (Homo sapiens, SW-620, 72 h, MTT, 5FU 72 h, read-out: IC50 against SW-620); 1500 nM in series [1] (setting [7]); 1500 nM in series [2] (Homo sapiens, HT-29, 72 h, MTT, 5FU 72 h, read-out: IC50 against HT-29); 4600 nM in series [2] (setting [8]).

For `O=C1Nc2ccccc2C1=NNC(=O)c1c[nH]c2ccccc12` [Compound 7a, N'-(2-Oxoindolin-3-ylidene)-1H-indole-3-carbohydrazide], the melting point (commonly the temperature of the solid-liquid transition) is 259 to 261 °C. Moreover, the IC50 in series [1] (setting [7]) was determined as 145 nM. Further, the IC50 in series [2] (setting [8]) came out at 408 nM.

As to `O=C1Nc2ccc(F)cc2C1=NNC(=O)c1c[nH]c2ccccc12` [Compound 7b, N'-(5-Fluoro-2-oxoindolin-3-ylidene)-1H-indole-3-carbohydrazide], the melting point is more than 300 °C. The IC50 in series [1] (setting [7]) is 175 nM. In series [2] (setting [8]), the IC50 stood at 611 nM.

For the compound `O=C1Nc2ccc(Cl)cc2C1=NNC(=O)c1c[nH]c2ccccc12` [Compound 7c, N'-(5-Chloro-2-oxoindolin-3-ylidene)-1H-indole-3-carbohydrazide], the “fold total apoptosis increase compared to the control” value in series [3] (SW-620, 250 nM) is “approximately 5.2 fold”; in series [3] (SW-620, 500 nM), approximately 10.66 fold. Besides, the IC50 stood at 206 nM in series [1] (setting [7]), 188 nM in series [1] (setting [9]), 188 nM in series [2] (setting [8]) and 206 nM in series [2] (setting [10]). Also, in series [4], the Bcl2 protein expression result is “dose-dependent inhibition”. For the same compound, in series [5], the “effect on cell viability of HFF-1” value is listed as “no/or little effect”. The BclxL protein expression result in series [6] was “dose-dependent inhibition”.

`O=C1Nc2ccc(Br)cc2C1=NNC(=O)c1c[nH]c2ccccc12` [Compound 7d, N'-(5-Bromo-2-oxoindolin-3-ylidene)-1H-indole-3-carbohydrazide] registered a melting point of 247 to 249 °C. Besides, in series [1] (setting [7]), the IC50 is 133 nM. Besides, in series [2] (setting [8]), the IC50 is 320 nM.

Compound `Cc1ccc2c(c1)C(=NNC(=O)c1c[nH]c3ccccc13)C(=O)N2` [Compound 7e, N'-(5-Methyl-2-oxoindolin-3-ylidene)-1H-indole-3-carbohydrazide] had a melting point of 201 to 203 °C. In addition, the IC50 in series [1] (setting [7]) was determined as 253 nM. Moreover, the concentration for half-maximal inhibition (IC50) in series [2] (setting [8]) was found to be 335 nM.

With `COc1ccc2c(c1)C(=NNC(=O)c1c[nH]c3ccccc13)C(=O)N2` [Compound 7f, N'-(5-Methoxy-2-oxoindolin-3-ylidene)-1H-indole-3-carbohydrazide], the melting point fell in the range of 197 to 199 °C. Moreover, the IC50 in series [1] (setting [7]) was determined as 37 nM. In addition, the IC50 in series [2] (setting [8]) was 142 nM.

As for `O=C1Nc2ccc(OC(F)(F)F)cc2C1=NNC(=O)c1c[nH]c2ccccc12` [Compound 7g, N'-(2-Oxo-5-(trifluoromethoxy)indolin-3-ylidene)-1H-indole-3-carbohydrazide], the “fold total apoptosis increase compared to the control” value is “approximately 7.3 fold” in series [3] (SW-620, 250 nM) and approximately 9.6 fold in series [3] (SW-620, 500 nM). Moreover, the IC50 in series [1] (setting [7]) is 299 nM; in series [1] (setting [9]) it was 279 nM; in series [2] (setting [8]), 279 nM; in series [2] (setting [10]), 299 nM. Also, in series [4], the Bcl2 protein expression entry was “inhibit”. Besides, the “effect on cell viability of HFF-1” value in series [5] is recorded as “no/or little effect”. Also, the BclxL protein expression result in series [6] was “inhibit”.

For the compound `O=C1Nc2ccc([N+](=O)[O-])cc2C1=NNC(=O)c1c[nH]c2ccccc12` [Compound 7h, N'-(5-Nitro-2-oxoindolin-3-ylidene)-1H-indole-3-carbohydrazide], the melting point was more than 300 °C. For the same compound, the IC50 in series [1] (setting [7]) worked out at 190 nM. In series [2] (setting [8]), the IC50 came to 132 nM. In series [2] (ratio of IC50 values versus 5FU), the “fold more active than 5FU against HT-29” value is listed as “approximately 35 fold”.

Compound `O=C1Nc2c(F)cccc2C1=NNC(=O)c1c[nH]c2ccccc12` [Compound 7i, N'-(7-Fluoro-2-oxoindolin-3-ylidene)-1H-indole-3-carbohydrazide] gave a melting point of more than 300 °C. In addition, the IC50 in series [1] (setting [7]) stood at 468 nM. For the same compound, the half-maximal inhibitory concentration (IC50) in series [2] (setting [8]) is 140 nM.

For the compound `Cc1cc(C)c2c(c1)C(=NNC(=O)c1c[nH]c3ccccc13)C(=O)N2` [Compound 7j, N'-(5,7-Dimethyl-2-oxoindolin-3-ylidene)-1H-indole-3-carbohydrazide], the melting point is more than 300 °C. The IC50 in series [1] (setting [7]) is 187 nM. In addition, the IC50 in series [2] (setting [8]) turned out to be 200 nM.

As for `CN1C(=O)C(=NNC(=O)c2c[nH]c3ccccc23)c2ccccc21` [Compound 9a, N'-(1-Methyl-2-oxoindolin-3-ylidene)-1H-indole-3-carbohydrazide], the melting point was in the range of 273 to 275 °C. For the same compound, the IC50 in series [1] (setting [7]) amounted to 260 nM. In series [2] (setting [8]), the IC50 is 176 nM.

On to `CCCN1C(=O)C(=NNC(=O)c2c[nH]c3ccccc23)c2ccccc21` [Compound 9b, N'-(2-Oxo-1-propylindolin-3-ylidene)-1H-indole-3-carbohydrazide], for which the melting point fell in the range of 248 to 250 °C. The IC50 in series [1] (setting [7]) is 105 nM. Also, in series [2] (setting [8]), the 50% inhibitory concentration (IC50) worked out at 525 nM.

Take `O=C(NN=C1C(=O)N(Cc2ccccc2)c2ccccc21)c1c[nH]c2ccccc12` [Compound 9c, N'-(1-Benzyl-2-oxoindolin-3-ylidene)-1H-indole-3-carbohydrazide]: the melting point is 274 to 276 °C. The IC50 in series [1] (setting [7]) came out at 283 nM. In addition, the IC50 in series [2] (setting [8]) came to 405 nM.

`CCCN1C(=O)C(=NNC(=O)c2c[nH]c3ccccc23)c2cc(Cl)ccc21` [Compound 9d, N'-(5-Chloro-2-oxo-1-propylindolin-3-ylidene)-1H-indole-3-carbohydrazide] gave a melting point of 262 to 263 °C. Further, the IC50 in series [1] (setting [7]) came to 290 nM. The IC50 in series [2] (setting [8]) came to 166 nM.

Consider `CCCN1C(=O)C(=NNC(=O)c2c[nH]c3ccccc23)c2cc(Br)ccc21` [Compound 9e, N'-(5-Bromo-2-oxo-1-propylindolin-3-ylidene)-1H-indole-3-carbohydrazide], for which the melting point is 255 to 256 °C. In series [1] (setting [7]), the IC50 amounted to 414 nM. Besides, the IC50 in series [2] (setting [8]) came to 290 nM.
